pEC50, pIC50: −log10 of the molar value.
Test system: panel of nearly 500 cancer cell lines
Assay: Cancer Cell Line Encyclopedia profiling, 3-day CellTiter-Glo
Type: cell-based
Details: Homo sapiens

CN(C)C(=O)c1cc2cnc(Nc3ccc(N4CCNCC4)cn3)nc2n1C1CCCC1 [Ribociclib, 7-cyclopentyl-2-(5-piperazin-1-yl-pyridin-2-ylamino)-7H-pyrrolo[2,3-d]pyrimidine-6-carboxylic acid dimethylamide]
pEC50 (HPAF-II): < 5.10 | pIC50 (HPAF-II): < 5.10 | pEC50 (HSC-2): < 5.10 | pIC50 (HSC-2): < 5.10 | pEC50 (HT1197): 5.74 | pIC50 (HT1197): < 5.10 | pEC50 (HT-29): < 5.10 | pIC50 (HT-29): 5.23 | pEC50 (HT-144): < 5.10 | pIC50 (HT-144): < 5.10 | pEC50 (HT-1080): 5.56 | pIC50 (HT-1080): < 5.10 | pEC50 (HepG2): 6.64 | pIC50 (HepG2): < 5.10 | pEC50 (Hs 294T): 5.33 | pIC50 (Hs 294T): < 5.10 | pEC50 (Hs 683): < 5.10 | pIC50 (Hs 683): < 5.10 | pEC50 (Hs 695T): < 5.10 | pIC50 (Hs 695T): < 5.10 | pEC50 (Hs746T): 6.36 | pIC50 (Hs746T): < 5.10 | pEC50 (Hs-578T): < 5.10 | pIC50 (Hs-578T): < 5.10 | pEC50 (HuCCT-1): < 5.10 | pIC50 (HuCCT-1): < 5.10 | pEC50 (HuH-1): < 5.10 | pIC50 (HuH-1): < 5.10 | pEC50 (HuP-T3): < 5.10 | pIC50 (HuP-T3): < 5.10 | pEC50 (HuP-T4): 5.65 | pIC50 (HuP-T4): 5.37 | pEC50 (HuT78): < 5.10 | pIC50 (HuT78): < 5.10 | pEC50 (IGR-37): 6.68 | pIC50 (IGR-37): < 5.10 | pEC50 (IGROV-1): < 5.10 | pIC50 (IGROV-1): < 5.10 | pEC50 (IM95): < 5.10 | pIC50 (IM95): < 5.10 | pEC50 (IMR-32): 6.54 | pIC50 (IMR-32): 5.81 | pEC50 (JVM-3): < 5.10 | pIC50 (JVM-3): < 5.10 | pEC50 (Jurkat): 5.43 | pIC50 (Jurkat): 5.43 | pEC50 (KALS-1): < 5.10 | pIC50 (KALS-1): < 5.10 | pEC50 (KARPAS-299): 6.06 | pIC50 (KARPAS-299): < 5.10 | pEC50 (KARPAS-422): < 5.10 | pIC50 (KARPAS-422): < 5.10 | pEC50 (KCL-22): < 5.10 | pIC50 (KCL-22): 5.21 | pEC50 (KMS-11): 6.63 | pIC50 (KMS-11): < 5.10 | pEC50 (KMS-12-BM): < 5.10 | pIC50 (KMS-12-BM): < 5.10 | pEC50 (KNS-42): 6.87 | pIC50 (KNS-42): < 5.10 | pEC50 (KNS-62): 6.03 | pIC50 (KNS-62): < 5.10 | pIC50 (KU812): < 5.10 | pEC50 (KYSE-30): < 5.10 | pIC50 (KYSE-30): < 5.10 | pEC50 (KYSE-70): 5.92 | pIC50 (KYSE-70): 5.25 | pEC50 (KYSE-140): 6.36 | pIC50 (KYSE-140): < 5.10 | pEC50 (KYSE-150): 5.53 | pIC50 (KYSE-150): < 5.10 | pEC50 (KYSE-180): 6.29 | pIC50 (KYSE-180): < 5.10 | pEC50 (KYSE-410): < 5.10 | pIC50 (KYSE-410): < 5.10 | pEC50 (KYSE-450): < 5.10 | pIC50 (KYSE-450): < 5.10 | pEC50 (KYSE-510): < 5.10 | pIC50 (KYSE-510): < 5.10 | pEC50 (KYSE-520): 5.22 | pIC50 (KYSE-520): < 5.10 | pEC50 (L-363): 5.98 | pIC50 (L-363): < 5.10 | pEC50 (L-428): 5.69 | pIC50 (L-428): < 5.10 | pEC50 (LCLC-103H): < 5.10 | pIC50 (LCLC-103H): < 5.10 | pEC50 (LN-18): < 5.10 | pIC50 (LN-18): < 5.10 | pEC50 (LN-229): < 5.10 | pIC50 (LN-229): < 5.10 | pEC50 (LOX IMVI): 5.54 | pIC50 (LOX IMVI): < 5.10 | pEC50 (LS-123): < 5.10 | pIC50 (LS-123): < 5.10 | pEC50 (LS-411N): 5.47 | pIC50 (LS-411N): 5.77 | pEC50 (LS-513): < 5.10 | pIC50 (LS-513): < 5.10 | pEC50 (Lu-99): 6.25 | pIC50 (Lu-99): 5.43 | pEC50 (M059J): < 5.10 | pIC50 (M059J): < 5.10 | pEC50 (MC116): < 5.10 | pIC50 (MC116): < 5.10 | pEC50 (MCF7): 6.47 | pIC50 (MCF7): 5.86 | pEC50 (MDA-MB-157): < 5.10 | pIC50 (MDA-MB-157): < 5.10 | pEC50 (MDA-MB-175-VII): < 5.10 | pIC50 (MDA-MB-175-VII): < 5.10 | pEC50 (MDA-MB-415): < 5.10 | pIC50 (MDA-MB-415): < 5.10 | pEC50 (MDA-MB-435S): 6.68 | pIC50 (MDA-MB-435S): 6.11 | pEC50 (MDA-MB-436): < 5.10 | pIC50 (MDA-MB-436): < 5.10 | pEC50 (MDA-MB-453): 6.78 | pIC50 (MDA-MB-453): < 5.10 | pEC50 (MDA-MB-468): 6.46 | pIC50 (MDA-MB-468): < 5.10 | pEC50 (MEC1): < 5.10 | pIC50 (MEC1): < 5.10 | pEC50 (MEG-01): 6.41 | pIC50 (MEG-01): < 5.10 | pEC50 (MES-SA): 6.08 | pIC50 (MES-SA): < 5.10 | pEC50 (MFE-280): < 5.10 | pIC50 (MFE-280): < 5.10 | pEC50 (MFE-296): 6.79 | pIC50 (MFE-296): 6.07 | pEC50 (MG-63): 6.62 | pIC50 (MG-63): < 5.10 | pEC50 (MIA PaCa-2): 5.63 | pIC50 (MIA PaCa-2): 5.25 | pEC50 (MINO): 6.57 | pIC50 (MINO): 6.34 | pEC50 (MKN-7): < 5.10 | pIC50 (MKN-7): < 5.10 | pEC50 (MKN-45): 6.64 | pIC50 (MKN-45): < 5.10 | pEC50 (MKN-74): < 5.10 | pIC50 (MKN-74): < 5.10 | pEC50 (MOLP-8): < 5.10 | pIC50 (MOLP-8): < 5.10 | pEC50 (MSTO-211H): < 5.10 | pIC50 (MSTO-211H): < 5.10 | pEC50 (Malme-3M): 8.59 | pIC50 (Malme-3M): < 5.10 | pEC50 (MeWo): 5.59 | pIC50 (MeWo): 5.59 | pEC50 (NCI-H23): < 5.10 | pIC50 (NCI-H23): < 5.10 | pEC50 (NCI-H28): < 5.10 | pIC50 (NCI-H28): 5.21 | pEC50 (NCI-H211): 6.43 | pIC50 (NCI-H211): < 5.10 | pEC50 (NCI-H226): < 5.10 | pIC50 (NCI-H226): < 5.10 | pEC50 (NCI-H358): 5.16 | pIC50 (NCI-H358): < 5.10 | pEC50 (NCI-H441): 6.47 | pIC50 (NCI-H441): < 5.10 | pEC50 (NCI-H460): < 5.10 | pIC50 (NCI-H460): < 5.10 | pEC50 (NCI-H520): < 5.10 | pIC50 (NCI-H520): < 5.10 | pEC50 (NCI-H522): < 5.10 | pIC50 (NCI-H522): < 5.10 | pEC50 (NCI-H647): < 5.10 | pIC50 (NCI-H647): < 5.10 | pEC50 (NCI-H650): 5.61 | pIC50 (NCI-H650): < 5.10 | pEC50 (NCI-H661): < 5.10 | pIC50 (NCI-H661): < 5.10 | pEC50 (NCI-H727): 5.98 | pIC50 (NCI-H727): < 5.10 | pEC50 (NCI-H747): < 5.10 | pIC50 (NCI-H747): < 5.10 | pEC50 (NCI-H810): < 5.10 | pIC50 (NCI-H810): < 5.10 | pEC50 (NCI-H1048): < 5.10 | pIC50 (NCI-H1048): < 5.10 | pEC50 (NCI-H1092): < 5.10 | pIC50 (NCI-H1092): < 5.10 | pEC50 (NCI-H1155): 5.58 | pIC50 (NCI-H1155): < 5.10 | pEC50 (NCI-H1299): 5.82 | pIC50 (NCI-H1299): < 5.10 | pEC50 (NCI-H1355): 6.33 | pIC50 (NCI-H1355): < 5.10 | pEC50 (NCI-H1373): < 5.10 | pIC50 (NCI-H1373): < 5.10 | pEC50 (NCI-H1563): < 5.10 | pIC50 (NCI-H1563): < 5.10 | pEC50 (NCI-H1573): < 5.10 | pIC50 (NCI-H1573): < 5.10 | pEC50 (NCI-H1581): < 5.10 | pIC50 (NCI-H1581): < 5.10 | pEC50 (NCI-H1648): < 5.10 | pIC50 (NCI-H1648): < 5.10 | pEC50 (NCI-H1650): < 5.10 | pIC50 (NCI-H1650): < 5.10 | pEC50 (NCI-H1651): < 5.10 | pIC50 (NCI-H1651): < 5.10 | pEC50 (NCI-H1666): < 5.10

Source: publication PMC6219668 (Oncotarget, 2018)
